Laboratory results as given in PubChem BioAssay AID256 (DTP/NCI, 2004).
Several values for one entry are separate records, joined by “and”; a condition that tells them apart may be missing. Equal values may be shown once. Inconclusive results and toxic doses are left out. How the source made its calls: active means survival T/C of 150% or more; inactive means T/C below 125% in these data.

Tested on: CD2F1 mice, L1210 leukemia ip, survival T/C
Assay: NCI In Vivo Anticancer Drug Screen. Data for tumor model L1210 Leukemia (intraperitoneal) in CD2F1 (CDF1) mice
Conditions: higher = longer survival
Outline: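 Compound-dosed mice with transplantable tumor versus matched vehicle controls; endpoint ratio T/C reported.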

[1] = endpoint: mean survival time, dose: 100.0 mg/kg/injection, schedule: Q01DX009 (ip), vehicle: saline with Tween-80
[2] = endpoint: mean survival time, dose: 100.0 mg/kg/injection, schedule: Q04DX003 (ip), vehicle: saline with Tween-80
[3] = endpoint: mean survival time, dose: 200.0 mg/kg/injection, schedule: Q01DX009 (ip), vehicle: saline with Tween-80
[4] = endpoint: mean survival time, dose: 200.0 mg/kg/injection, schedule: Q04DX003 (ip), vehicle: saline with Tween-80
[5] = endpoint: mean survival time, dose: 400.0 mg/kg/injection, schedule: Q01DX009 (ip), vehicle: saline with Tween-80
[6] = endpoint: mean survival time, dose: 400.0 mg/kg/injection, schedule: Q04DX003 (ip), vehicle: saline with Tween-80
[7] = endpoint: mean survival time, dose: 100.0 mg/kg/injection, schedule: Q01DX001 (ip), vehicle: saline with Tween-80
[8] = endpoint: mean survival time, dose: 200.0 mg/kg/injection, schedule: Q01DX001 (ip), vehicle: saline with Tween-80
[9] = endpoint: mean survival time, dose: 400.0 mg/kg/injection, schedule: Q01DX001 (ip), vehicle: saline with Tween-80
[10] = endpoint: mean survival time, dose: 100.0 mg/kg/injection, schedule: Q04DX003 (ip), vehicle: saline
[11] = endpoint: mean survival time, dose: 200.0 mg/kg/injection, schedule: Q04DX003 (ip), vehicle: saline
[12] = endpoint: mean survival time, dose: 400.0 mg/kg/injection, schedule: Q04DX003 (ip), vehicle: saline

Measured: T/C

CCO/C=C1\SC(=S)N(C)C1=O
inactive: endpoint: mean survival time, dose: 15.0 mg/kg/injection, schedule: Q01DX009 (ip), vehicle: saline with Tween-80 90 % of control | endpoint: mean survival time, dose: 30.0 mg/kg/injection, schedule: Q01DX009 (ip), vehicle: saline with Tween-80 87 % of control | endpoint: mean survival time, dose: 60.0 mg/kg/injection, schedule: Q01DX009 (ip), vehicle: saline with Tween-80 98 % of control

COc1ccc2c(c1OC)C(=O)OC2c1cc(Br)c(O)c(C2OC(=O)c3c2ccc(OC)c3OC)c1 (stereo not given)
inactive: [1] 101 % of control | [2] 92 % of control | [3] 101 % of control | [4] 93 % of control | [5] 98 % of control | [6] 90 % of control

COc1ccc(/C=C2/SC(=S)NC2=O)c(OC)c1OC
inactive: endpoint: mean survival time, dose: 75.0 mg/kg/injection, schedule: Q01DX001 (ip), vehicle: other 103 % of control | endpoint: mean survival time, dose: 150.0 mg/kg/injection, schedule: Q01DX001 (ip), vehicle: other 92 % of control | endpoint: mean survival time, dose: 300.0 mg/kg/injection, schedule: Q01DX001 (ip), vehicle: other 103 % of control

C/C=C/c1cnc(N)nc1-c1ccc(OC)cc1
inactive: [7] 97 % of control | [8] 94 % of control | [9] 97 % of control

CC(N)CC(=O)NO (stereo not given)
inactive: endpoint: mean survival time, dose: 100.0 mg/kg/injection, schedule: Q01DX001 (ip), vehicle: saline 104 % of control | endpoint: mean survival time, dose: 200.0 mg/kg/injection, schedule: Q01DX001 (ip), vehicle: saline 104 % of control | endpoint: mean survival time, dose: 400.0 mg/kg/injection, schedule: Q01DX001 (ip), vehicle: saline 108 % of control

O=C(Nc1ccc(Cl)c(Cl)c1)Nc1ccc(Cl)c(Cl)c1 (tested in a mixture with another compound)
inactive: endpoint: mean survival time, dose: 100.0 mg/kg/injection, schedule: Q04DX002 (ip), vehicle: saline with Tween-80 97 % of control | endpoint: mean survival time, dose: 200.0 mg/kg/injection, schedule: Q04DX002 (ip), vehicle: saline with Tween-80 90 % of control | endpoint: mean survival time, dose: 400.0 mg/kg/injection, schedule: Q04DX002 (ip), vehicle: saline with Tween-80 97 % of control

COC1C(CO)OC(n2c3c(Cl)cccc3c3c4c(c5c6cccc(Cl)c6[nH]c5c32)C(=O)NC4=O)C(O)C1O (stereo not given)
inactive: endpoint: median survival time, dose: 12.5 mg/kg/injection, schedule: Q01DX009 (ip), vehicle: distilled water + Tween-80 105 % of control and 112 % of control | endpoint: median survival time, dose: 25.0 mg/kg/injection, schedule: Q01DX009 (ip), vehicle: distilled water + Tween-80 114 % of control | endpoint: median survival time, dose: 36.0 mg/kg/injection, schedule: Q01DX009 (ip), vehicle: distilled water + Tween-80 113 % of control | endpoint: median survival time, dose: 50.0 mg/kg/injection, schedule: Q01DX009 (ip), vehicle: distilled water + Tween-80 112 % of control | endpoint: median survival time, dose: 60.0 mg/kg/injection, schedule: Q01DX009 (ip), vehicle: distilled water + Tween-80 115 % of control | endpoint: median survival time, dose: 100.0 mg/kg/injection, schedule: Q01DX009 (ip), vehicle: distilled water + Tween-80 121 % of control and 103 % of control | endpoint: median survival time, dose: 166.7 mg/kg/injection, schedule: Q01DX009 (ip), vehicle: distilled water + Tween-80 122 % of control | endpoint: median survival time, dose: 200.0 mg/kg/injection, schedule: Q01DX009 (ip), vehicle: distilled water + Tween-80 95 % of control

CCCCCCC(O)/C=C/c1ccc(Cl)cc1 (stereo not given)
inactive: [2] 110 % of control | [4] 102 % of control | [6] 111 % of control

COc1ccc(C)c2nc3ccccc3nc12
inactive: [7] 98 % of control | [8] 97 % of control | [9] 98 % of control

Cn1cnc2ccc(Cl)cc21
inactive: endpoint: mean survival time, dose: 50.0 mg/kg/injection, schedule: Q01DX009 (ip), vehicle: saline with Tween-80 102 % of control | [1] 98 % of control | [3] 95 % of control

CC(C)CC(C)OP(=S)(S)OC(C)CC(C)C (stereo not given)
inactive: endpoint: mean survival time, dose: 12.5 mg/kg/injection, schedule: Q04DX002 (ip), vehicle: saline 95 % of control | endpoint: mean survival time, dose: 25.0 mg/kg/injection, schedule: Q04DX002 (ip), vehicle: saline 95 % of control | endpoint: mean survival time, dose: 50.0 mg/kg/injection, schedule: Q04DX002 (ip), vehicle: saline 109 % of control

OCC1(O)OCC(O)C(F)C1O (stereo not given)
inactive: endpoint: mean survival time, dose: 100.0 mg/kg/injection, schedule: Q01DX009 (ip), vehicle: saline 96 % of control | [10] 88 % of control | endpoint: mean survival time, dose: 200.0 mg/kg/injection, schedule: Q01DX009 (ip), vehicle: saline 96 % of control | [11] 89 % of control | endpoint: mean survival time, dose: 400.0 mg/kg/injection, schedule: Q01DX009 (ip), vehicle: saline 94 % of control | [12] 91 % of control

Cc1cnc(Cl)c(Br)c1
inactive: [7] 96 % of control | [1] 104 % of control | [8] 101 % of control | [3] 100 % of control | [9] 95 % of control | [5] 106 % of control

CC(C)O.CC(C)O.CC(C)O.[La]
inactive: [10] 97 % of control | [11] 87 % of control | [12] 89 % of control

O=C(N/N=C/c1ccc(Cl)cc1)c1ccc(Cl)cc1
inactive: [2] 101 % of control | [4] 93 % of control | [6] 108 % of control

O=P(O)(O)c1ccc(I)cc1
inactive: endpoint: mean survival time, dose: 50.0 mg/kg/injection, schedule: Q04DX003 (ip), vehicle: saline 94 % of control | [10] 94 % of control | [11] 98 % of control

NC(=O)c1ccc[n+](Cc2ccccc2)c1
inactive: endpoint: mean survival time, dose: 75.0 mg/kg/injection, schedule: Q01DX001 (ip), vehicle: saline 98 % of control | endpoint: mean survival time, dose: 150.0 mg/kg/injection, schedule: Q01DX001 (ip), vehicle: saline 96 % of control

O=C(O)c1ccc([N+](=O)[O-])cc1
inactive: endpoint: mean survival time, dose: 100.0 mg/kg/injection, schedule: Q04DX002 (ip), vehicle: Klucel (hydroxypropylcellulose) (HPC) 93 % of control | endpoint: mean survival time, dose: 200.0 mg/kg/injection, schedule: Q04DX002 (ip), vehicle: Klucel (hydroxypropylcellulose) (HPC) 101 % of control | endpoint: mean survival time, dose: 400.0 mg/kg/injection, schedule: Q04DX002 (ip), vehicle: Klucel (hydroxypropylcellulose) (HPC) 86 % of control

CCSC(C(O)C(O)C(O)CO)n1cc(F)c(=O)[nH]c1=O (stereo not given)
inactive: endpoint: mean survival time, dose: 12.5 mg/kg/injection, schedule: Q01DX005 (ip), vehicle: water 104 % of control | endpoint: mean survival time, dose: 25.0 mg/kg/injection, schedule: Q01DX005 (ip), vehicle: water 105 % of control | endpoint: mean survival time, dose: 50.0 mg/kg/injection, schedule: Q01DX005 (ip), vehicle: water 110 % of control | endpoint: mean survival time, dose: 100.0 mg/kg/injection, schedule: Q01DX005 (ip), vehicle: water 105 % of control | endpoint: mean survival time, dose: 200.0 mg/kg/injection, schedule: Q01DX005 (ip), vehicle: water 104 % of control

Nc1nc(N)c2[nH]c(-c3ccccc3)nc2n1
inactive: endpoint: mean survival time, dose: 6.25 mg/kg/injection, schedule: Q01DX005 (ip), vehicle: saline with Tween-80 100 % of control | endpoint: mean survival time, dose: 12.5 mg/kg/injection, schedule: Q01DX005 (ip), vehicle: saline with Tween-80 97 % of control | endpoint: mean survival time, dose: 25.0 mg/kg/injection, schedule: Q01DX005 (ip), vehicle: saline with Tween-80 99 % of control | endpoint: mean survival time, dose: 50.0 mg/kg/injection, schedule: Q01DX005 (ip), vehicle: saline with Tween-80 99 % of control

CC(=O)c1ccc2c([N+](=O)[O-])ccc3c2c1CC3
inactive: [7] 97 % of control | [8] 91 % of control | [9] 94 % of control

CC/C(=C\c1ccc(Cl)cc1)[N+](=O)[O-]
inactive: endpoint: mean survival time, dose: 12.5 mg/kg/injection, schedule: Q04DX003 (ip), vehicle: Klucel (hydroxypropylcellulose) (HPC) 102 % of control | endpoint: mean survival time, dose: 25.0 mg/kg/injection, schedule: Q04DX003 (ip), vehicle: Klucel (hydroxypropylcellulose) (HPC) 97 % of control | endpoint: mean survival time, dose: 50.0 mg/kg/injection, schedule: Q04DX003 (ip), vehicle: Klucel (hydroxypropylcellulose) (HPC) 97 % of control

COc1ccccc1C(O)(c1ccccc1OC)c1c(OC)cccc1OC
inactive: [1] 97 % of control | [3] 93 % of control | [5] 88 % of control

O=c1cc(CO)[nH]c(=O)[nH]1
inactive: endpoint: mean survival time, dose: 12.5 mg/kg/injection, schedule: Q01DX009 (ip), vehicle: other 91 % of control | endpoint: mean survival time, dose: 25.0 mg/kg/injection, schedule: Q01DX009 (ip), vehicle: other 94 % of control | endpoint: mean survival time, dose: 50.0 mg/kg/injection, schedule: Q01DX009 (ip), vehicle: other 91 % of control | endpoint: mean survival time, dose: 100.0 mg/kg/injection, schedule: Q01DX009 (ip), vehicle: other 92 % of control | endpoint: mean survival time, dose: 200.0 mg/kg/injection, schedule: Q01DX009 (ip), vehicle: other 97 % of control
